In EP0032304B1, “Antibiotic compositions” (ELI LILLY AND COMPANY, priority 1979, dated 1981):
Counter-ions that a name gives are not always drawn. Like-named read-outs stand apart in the source and are kept apart here.

What was measured:
M. gallisepticum 36 F = assay: Minimal inhibitory concentration vs mycoplasma in contaminated LLC-MK2 tissue culture; format: cell-based; details: LLC-MK2 tissue culture contaminated with M. gallisepticum 36 F (chicken mycoplasma), combinations contain equal amounts of each antibiotic
Method: (§1) Suspensions of monkey kidney cells, LLC-MK2, in medium 199 (Morgan et al., Proc. Soc. Exp. Biol. Med, 73, 1 1950), were inoculated with cultures of the indicated mycoplasma to achieve an inoculum concentration of 1.5xlO' organisms/ml of cell suspension. Control cultures and the mycoplasma positive cultures included in each test were incubated at 37°C for 3-5 days. After incubation the medium in all cultures was changed to 1% horse serum in Medium 199 containing 1.68 g of sodium bicarbonates per liter. The tissue cultures innoculated with mycoplasma (except for mycoplasma positive control cultures) were then treated with the indicated individual antibiotics alone or with the combination of antibiotics shown in Table 1. When combinations of antibiotics were tested equal amounts of the antibiotics were used.
(§2) Solutions of the antibiotics were made up in Medium 199 containing 1.68 g of sodium bicarbonate per liter of medium. The solutions were sterile filtered through a millipore filter having a 0.2 µm porosity and were stored at 4°C prior to use. Two fold dilutions of the antibiotic solutions were made and each antibiotic solution was added to separate cultures to determine the minimal inhibitory concentration. The medium in each culture was changed twice a week with fresh antibiotic solution at the same concentration being added at each medium change. After two weeks, medium changes were made without antibiotic for two more weeks. Samples of the cultures were taken before each medium change in the last two weeks and were cultured to determine the presence of mycoplasma.

M. Hyorhinis HH = assay: as above; format: cell-based, Mycoplasma hyorhinis; details: for MIC: Mesomycoplasma hyorhinis
Method: as §1, §2
Cell suspensions of LLC-MK2 (Monkey kidney cell line) in Medium 199 containing 1% house serum of 4 ml volumes in tissue culture flasks were inoculated with a 3 day old culture of Mycoplasma hyorhinis (5 x 10^8 organism per ml in Eaton's broth). Approximately 2 to 3% of the mycoplasma culture per volume of the cell suspension was used. After inoculation the cell suspensions were incubated at a temperature of 37°C for from three to five days. Control cultures were also made up in the same manner. After incubation the medium in the control cultures and the mycoplasma positive cultures was replaced with fresh Medium 199 containing 1.68 g of sodium bicarbonate and 1% horse serum. The cultures were then treated with solutions of tylosin, tobramycin, and with the combination of tylosin and tobramycin in Medium 199 containing 1.68 g of sodium bicarbonate per liter. Solutions of each individual antibiotic and of the combination at a concentration of 1000 µg/ml were prepared. […] By two-fold serial dilution solutions at various concentrations down to 0.39 µg/ml were prepared. Each of the antibiotic solutions was added to a separate flask containing the tissue culture.
The tissue culture medium was replaced in each flask twice a week and at each medium change for two weeks a fresh solution of the antibiotic at the same concentration was added. After two weeks fresh medium replacements were made for two more weeks without the addition of antibiotic. Samples of each culture were taken before each medium replacement and were cultured to determine the presence of mycoplasma.

M. Hyorhinis = assay: as above; format: cell-based; details: LLC-MK2 tissue culture contaminated with M. Hyorhinis, combinations contain equal amounts of each antibiotic
Method: as §1, §2
Cell suspensions of LLC-MK2 (Monkey kidney cell line) in Medium 199 containing 1% house serum of 4 ml volumes in tissue culture flasks were inoculated with a 3 day old culture of Mycoplasma hyorhinis (5 x 10^8 organism per ml in Eaton's broth). Approximately 2 to 3% of the mycoplasma culture per volume of the cell suspension was used. After inoculation the cell suspensions were incubated at a temperature of 37°C for from three to five days. Control cultures were also made up in the same manner. […]

Swine L3F12F7 = assay: as above; format: cell-based; details: Mycoplasmopsis arginini; LLC-MK2 tissue culture contaminated with Swine L3F12F7 (mycoplasma isolated from swine); combinations contain equal amounts of each antibiotic
Method: as §1, §2

M. Hyorhinis HEK = assay: as above; format: cell-based; details: Mesomycoplasma hyorhinis; LLC-MK2 tissue culture contaminated with M. Hyorhinis HEK (isolate from human embryonic kidney tissue); combinations contain equal amounts of each antibiotic
Method: as §1, §2

M. gallisepticum 41313 = assay: as above; format: cell-based; details: Mycoplasmoides gallisepticum; LLC-MK2 tissue culture contaminated with M. gallisepticum 41313 (chicken mycoplasma); combinations contain equal amounts of each antibiotic
Method: as §1, §2

[1] = tested on: P. hemolytica strain 41 D; assay: In vitro MIC and checkerboard titration of the combination; format: cell-based, Pasturella hemolytica; details: antibiotic alone
Method: This organism can cause pneumonia in cattle which in cases of severe infection can lead to death. […] The synergistic activity of the combination of the two antibiotics was determined by the "checkerboard" titration method. In this method two antibiotics are tested in serial dilutions and in all combinations of these dilutions together to find the concentrations of each antibiotic, both alone and in combination, that inhibit growth of the test microorganism. The nature of the interaction between the two antibiotics may be determined algebraically or geometrically. In the algebraic method, the concentration of each antibiotic in the combination that inhibits growth is expressed as a fraction of the concentration that produces the same effect when the antibiotic is used alone. When the sum of these fractions is one, the combination is additive, when the sum is less than one, the combination is synergistic; and when the sum is greater than one, the combination is antagonistic.
Below are shown the calculations using data obtained in the in vitro test of tylosin, apramycin and the combination of the two antibiotics against P. hemolytica.

[2] = 28 day weight gain and feed utilization trial in post weaned pigs; format: in vivo; details: 28 days; for Daily feed intake (Rel) / Daily gain (Rel) / Feed efficiency (Rel) / Final weight (Rel): comparison to negative controls (100), 100 ppm in feed; for Daily feed intake x̄ (kg) per animal / Daily gain x̄ (g) per animal / Feed efficiency x̄ (kg feed/kg gain) / Final weight x̄ (kg) per animal: post weaned pigs, 100 ppm in feed (combination 100 ppm of each); for Final weight x̄ (kg) per animal: mean of two like trials
Method: The trials were carried out in pens with 6 pigs per pen for 28 days. The pigs were of mixed sex having an average initial body weight of 12.89 kg and an average age of six weeks. The animals received water before and after feeding. The animals were fed twice daily with feed having the following composition.
The tylosin-apramycin combination was compared in the trials with tylosin alone and with apramycin alone. The antibiotics and the combination thereof were administered in the animal feed at a level of 100 ppm, and, in the case of the combination; at 100 ppm for each antibiotic.

E. coli = assay: 21 day trial in weanling pigs: treatment and control of colibacillosis, weight gain, feed efficiency, diarrhoea; format: in vivo; details: for Diarrhoea index: score 1 (formed stools only) to 5 (liquid stools only), scored twice daily for 13 days and once on the 14th day, 110 ppm in feed; for Percent increase over controls: Reduction of diarrhoea / Percent increase over controls: Average daily weight gain / Percent increase over controls: Improved feed efficiency / Average daily feed / Average daily gain / Feed efficiency: weanling pigs, 21 days; for Percent increase over controls: Reduction of diarrhoea: difference in incidence as percentage of the control incidence; for Percent increase over controls: Average daily weight gain / Percent increase over controls: Improved feed efficiency: vs non-treated control group; for Average daily feed / Average daily gain / Feed efficiency: tylosin phosphate and apramycin sulfate at 110 ppm in feed, combination 110 ppm of each
Text: Tylosin and apramycin were each administered in the feed at a level of 110 ppm. The antibiotic combination was likewise administered in the feed containing both antibiotics at the 110 ppm level. The results are shown as a percentage increase over a non-treated control group as calculated from the statistical evaluation of the data obtained in the study.
The efficacy of the tylosin-apramycin combination in the treatment and control of colibacillosis is shown by the results obtained in a 21 day trial with weanling pigs. The pigs were divided by weight into treatment and control groups of eight pigs. Each treatment was randomly assigned to three groups. The animals were fed a normal ration ad libitum with the treatment groups receiving feed containing 110 ppm of each antibiotic. Weight gains, feed efficiency and the incidence of diarrhoea were used to measure the response to treatment.
Ninety-six weanling pigs averaging 6.0 kg in weight were randomly allocated by weight into 12 pens of 8 pigs per pen. Four treatments were used in the study as follows: 1) Non-medicated controls; 2) apramycin fed at 110 ppm; 3) tylosin phosphate fed at 110 ppm; and 4) apramycin sulfate and tylosin phosphate both fed at 110 ppm. Each treatment was replicated through three pens.
The pigs were fed for 21 days ad libitum a ration of 20% protein corn-soy meal with some rolled oats included for roughage. Vitamins and minerals were added as needed to balance the ration. The only difference in the rations fed to all pigs was the inclusion of the appropriate antibiotic or antibiotic combination in each of the medicated rations. All feed was weighed as fed, with the feed remaining at the end of the weigh period, weighed and discarded. The pigs were weighed at the initiation of the study and weekly thereafter.
Diarrhoea scores were maintained on a pen basis. The scoring was done by the same person on a twice daily schedule for the first 13 days and once only on the 14th day. The scoring index was the same as that shown in footnote 2 of Table 5.

[3] = LLC-MK2 tissue culture contaminated with M. Hyorhinis HH (isolate from human heart tissue), combinations contain equal amounts of each antibiotic
[4] = 110 ppm of each antibiotic in feed
[5] = LLC-MK2 tissue culture contaminated with M. Hyorhinis HH (isolate from human heart tissue), combinations contain equal amounts of each antibiotic, read-out: Minimal inhibitory concentration

## Tylosin tartrate
M. gallisepticum 36 F
  Minimal inhibitory concentration: >800 µg/mL
M. Hyorhinis HH; [3]
  Minimal inhibitory concentration: 200 µg/mL

## NC[C@H]1O[C@H](O[C@H]2[C@H](O)[C@@H](O[C@H]3O[C@H](CO)[C@@H](O)[C@H](N)[C@H]3O)[C@H](N)C[C@@H]2N)[C@H](N)C[C@@H]1O [Tobramycin]
M. Hyorhinis; Mesomycoplasma hyorhinis
  MIC: 100 µg/mL
M. gallisepticum 36 F; Mycoplasmoides gallisepticum
  MIC: 100 µg/mL
Swine L3F12F7
  MIC: 50 µg/mL
M. Hyorhinis HEK
  MIC: > 500 µg/mL
M. gallisepticum 41313
  MIC: 200 µg/mL
M. Hyorhinis HH; Example 4, procedure of Example 1, LLC-MK2 tissue culture, read-out: MIC
  MIC: 200 µg/mL

## CN[C@@H]1[C@@H](O[C@H]2O[C@H](CO)[C@@H](N)[C@H](O)[C@H]2O)OC2C[C@@H](N)[C@@H](O[C@H]3[C@H](O)[C@@H](O)[C@H](N)C[C@@H]3N)OC2[C@@H]1O (stereo partly drawn) [Apramycin]
[1]
  MIC: 25 µg/mL
[2]
  Daily feed intake (Rel): (100) percentage
  Daily gain (Rel): (110) percentage
  Feed efficiency (Rel): (92) percentage
  Final weight (Rel): (102) percentage
  Daily feed intake x̄ (kg) per animal: 0,92 kg
  Daily gain x̄ (g) per animal: 467 g
  Feed efficiency x̄ (kg feed/kg gain): 1,96 kg feed/kg gain
  Final weight x̄ (kg) per animal: 25,62 kg
E. coli
  Diarrhoea index: 1.64
  Average daily feed: 0.47 kg
  Average daily gain: 0.29 kg
  Feed efficiency: 1.64
E. coli; [4]
  Percent increase over controls: Reduction of diarrhoea: 42.8%
  Percent increase over controls: Average daily weight gain: 19.0%
  Percent increase over controls: Improved feed efficiency: 10.3%
M. Hyorhinis HH; [5]
  MIC: 600 µg/mL

## Magnamycin
M. Hyorhinis HH; [3]
  Minimal inhibitory concentration: >800 µg/mL

## Gentamicin
M. Hyorhinis
  Minimal inhibitory concentration: 100 µg/mL

## CO[C@H]1C[C@H](O[C@H]2[C@H](C)[C@@H](O[C@@H]3O[C@H](C)C[C@H](N(C)C)[C@H]3O)[C@@H](C)C[C@@]3(CO3)C(=O)[C@H](C)[C@@H](O)[C@@H](C)[C@@H](C)OC(=O)[C@@H]2C)O[C@@H](C)[C@@H]1O [Oleandomycin]
M. Hyorhinis HH; [5]
  MIC: 400 µg/mL

## NC[C@H]1O[C@H](O[C@H]2[C@H](O)[C@@H](O[C@H]3O[C@H](CO)[C@@H](O)[C@H](N)[C@H]3O)[C@H](N)C[C@@H]2N)[C@H](N)[C@@H](O)[C@@H]1O [Nebramycin Factor 5]
M. Hyorhinis HH; [3]
  Minimal inhibitory concentration: 200 µg/mL

## Spiromycin
M. Hyorhinis HH; [3]
  Minimal inhibitory concentration: >800 µg/mL

## Neomycin
M. Hyorhinis
  Minimal inhibitory concentration: 100 µg/mL

## NCC1OC(OC2C(N)CC(N)C(OC3OC(CO)C(O)C(N)C3O)C2O)C(N)CC1O (stereo not drawn) [Tobramycin sulfate]
M. Hyorhinis HH; [5]
  MIC: 200 µg/mL

## CO[C@@H]1[C@@H](O[C@@H]2O[C@H](C)[C@@H](O[C@H]3C[C@@](C)(O)[C@@H](OC(=O)CC(C)C)[C@H](C)O3)[C@H](N(C)C)[C@H]2O)[C@@H](CC=O)C[C@@H](C)[C@@H](O)/C=C/C=C/C[C@@H](C)OC(=O)C[C@H]1O [Leucomycin]
M. Hyorhinis HH; [3]
  Minimal inhibitory concentration: >400 µg/mL
M. Hyorhinis HH; [5]
  MIC: 400 µg/mL

## CC[C@H]1OC(=O)C[C@@H](O)[C@H](C)[C@@H](O[C@@H]2O[C@H](C)[C@@H](O[C@H]3C[C@@](C)(O)[C@@H](O)[C@H](C)O3)[C@H](N(C)C)[C@H]2O)[C@@H](CC=O)C[C@@H](C)C(=O)/C=C/C(C)=C/[C@@H]1CO[C@@H]1O[C@H](C)[C@@H](O)[C@@H](OC)[C@H]1OC [Tylosin]
[1]
  MIC: 50 µg/mL
[2]
  Daily feed intake (Rel): (100) percentage
  Daily gain (Rel): (106) percentage
  Feed efficiency (Rel): (97) percentage
  Final weight (Rel): (102) percentage
  Daily feed intake x̄ (kg) per animal: 0,92 kg
  Daily gain x̄ (g) per animal: 449 g
  Feed efficiency x̄ (kg feed/kg gain): 2,07 kg feed/kg gain
  Final weight x̄ (kg) per animal: 25,58 kg
E. coli; plot in the accompanying drawing, 110 ppm of each antibiotic in feed
  mean diarrhoea scores vs time in days (incidence of diarrhoea): some effectiveness
E. coli
  Diarrhoea index: 2.10
  Average daily feed: 0.51 kg
  Average daily gain: 0.31 kg
  Feed efficiency: 1.62
E. coli; [4]
  Percent increase over controls: Reduction of diarrhoea: 26.4%
  Percent increase over controls: Average daily weight gain: 29.7%
  Percent increase over controls: Improved feed efficiency: 11.4%
Swine L3F12F7
  MIC: 200 µg/mL
M. Hyorhinis HEK
  MIC: > 200 µg/mL
M. Hyorhinis HH; [3]
  Minimal inhibitory concentration: 200 µg/mL
